Reference: ChEMBL document CHEMBL5649169 (ChemMedChem, 2018)

Tests used:
[1] = target: 14-3-3 protein sigma (Homo sapiens) (UniProt P31947)
Homo sapiens [2] = organism: Homo sapiens
Homo sapiens [3] = organism: Homo sapiens; remark: listed apart in the source
Rootletin (Homo sapiens) = Rootletin (Homo sapiens) (UniProt Q5TZA2)
[4] = target: Replication factor C subunit 5 (Homo sapiens) (UniProt P40937)
Homo sapiens [5] = organism: Homo sapiens; remark: listed apart in the source
[6] = target: Zinc finger protein with KRAB and SCAN domains 2 (Homo sapiens) (UniProt Q63HK3)
[7] = target: Small ribosomal subunit protein uS2 (Homo sapiens) (UniProt P08865)
[8] = target: Nucleolar protein 58 (Homo sapiens) (UniProt Q9Y2X3)
Sequence of Nucleolar protein 58 (Homo sapiens) (Q9Y2X3 whole entry): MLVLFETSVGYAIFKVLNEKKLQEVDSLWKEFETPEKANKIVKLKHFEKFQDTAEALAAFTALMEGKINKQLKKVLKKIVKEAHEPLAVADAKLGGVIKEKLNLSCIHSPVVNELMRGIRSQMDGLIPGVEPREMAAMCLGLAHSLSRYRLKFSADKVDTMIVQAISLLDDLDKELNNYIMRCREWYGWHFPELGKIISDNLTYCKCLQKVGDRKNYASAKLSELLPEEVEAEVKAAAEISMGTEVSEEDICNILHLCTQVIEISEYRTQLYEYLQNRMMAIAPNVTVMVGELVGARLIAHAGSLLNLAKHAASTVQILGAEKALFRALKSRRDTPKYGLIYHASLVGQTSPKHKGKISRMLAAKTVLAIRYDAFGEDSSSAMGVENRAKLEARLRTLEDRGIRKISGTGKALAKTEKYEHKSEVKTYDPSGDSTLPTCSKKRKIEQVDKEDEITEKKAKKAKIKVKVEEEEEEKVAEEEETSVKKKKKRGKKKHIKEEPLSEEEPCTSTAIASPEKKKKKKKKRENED

Translin (Homo sapiens) = Translin (Homo sapiens) (UniProt Q15631)
Sequence of Translin (Homo sapiens) (Q15631 whole entry): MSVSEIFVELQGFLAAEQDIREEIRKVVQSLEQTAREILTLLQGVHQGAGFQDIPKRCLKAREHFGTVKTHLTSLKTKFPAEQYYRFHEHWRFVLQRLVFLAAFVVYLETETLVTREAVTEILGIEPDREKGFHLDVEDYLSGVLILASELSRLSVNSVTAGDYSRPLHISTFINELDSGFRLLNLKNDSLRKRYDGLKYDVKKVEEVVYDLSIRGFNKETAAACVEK

[9] = target: Dynamin-like GTPase OPA1, mitochondrial (Homo sapiens) (UniProt O60313)
Sequence of Dynamin-like GTPase OPA1, mitochondrial (Homo sapiens) (O60313 whole entry): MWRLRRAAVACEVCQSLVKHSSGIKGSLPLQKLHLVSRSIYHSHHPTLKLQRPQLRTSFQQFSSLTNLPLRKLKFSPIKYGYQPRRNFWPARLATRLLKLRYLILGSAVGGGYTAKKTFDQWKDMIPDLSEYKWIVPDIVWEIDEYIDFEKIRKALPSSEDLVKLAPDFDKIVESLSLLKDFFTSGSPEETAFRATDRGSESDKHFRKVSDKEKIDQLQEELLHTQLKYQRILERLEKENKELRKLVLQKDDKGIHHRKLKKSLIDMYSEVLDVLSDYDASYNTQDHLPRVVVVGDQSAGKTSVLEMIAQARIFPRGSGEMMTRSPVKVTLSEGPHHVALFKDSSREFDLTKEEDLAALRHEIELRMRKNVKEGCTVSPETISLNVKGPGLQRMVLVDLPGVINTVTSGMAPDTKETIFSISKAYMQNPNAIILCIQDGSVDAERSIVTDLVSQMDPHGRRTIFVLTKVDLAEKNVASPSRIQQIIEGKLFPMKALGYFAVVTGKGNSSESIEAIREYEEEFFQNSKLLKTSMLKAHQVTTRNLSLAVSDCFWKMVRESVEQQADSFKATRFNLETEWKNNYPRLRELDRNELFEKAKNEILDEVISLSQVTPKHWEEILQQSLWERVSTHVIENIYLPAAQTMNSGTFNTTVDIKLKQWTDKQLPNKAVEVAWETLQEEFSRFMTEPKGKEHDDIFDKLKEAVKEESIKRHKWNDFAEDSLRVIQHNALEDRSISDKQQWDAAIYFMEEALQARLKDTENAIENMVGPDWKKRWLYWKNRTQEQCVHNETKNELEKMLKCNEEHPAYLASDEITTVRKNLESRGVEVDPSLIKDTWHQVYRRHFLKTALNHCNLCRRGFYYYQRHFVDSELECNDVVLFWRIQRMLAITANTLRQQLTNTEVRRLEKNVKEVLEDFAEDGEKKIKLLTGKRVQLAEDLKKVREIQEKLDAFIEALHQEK

[10] = target: Dolichyl-diphosphooligosaccharide--protein glycosyltransferase subunit MAGT1 (Homo sapiens) (UniProt Q9H0U3)
[11] = target: Protein PRRC2C (Homo sapiens) (UniProt Q9Y520)
Sequence of Protein PRRC2C (Homo sapiens) (Q9Y520 whole entry): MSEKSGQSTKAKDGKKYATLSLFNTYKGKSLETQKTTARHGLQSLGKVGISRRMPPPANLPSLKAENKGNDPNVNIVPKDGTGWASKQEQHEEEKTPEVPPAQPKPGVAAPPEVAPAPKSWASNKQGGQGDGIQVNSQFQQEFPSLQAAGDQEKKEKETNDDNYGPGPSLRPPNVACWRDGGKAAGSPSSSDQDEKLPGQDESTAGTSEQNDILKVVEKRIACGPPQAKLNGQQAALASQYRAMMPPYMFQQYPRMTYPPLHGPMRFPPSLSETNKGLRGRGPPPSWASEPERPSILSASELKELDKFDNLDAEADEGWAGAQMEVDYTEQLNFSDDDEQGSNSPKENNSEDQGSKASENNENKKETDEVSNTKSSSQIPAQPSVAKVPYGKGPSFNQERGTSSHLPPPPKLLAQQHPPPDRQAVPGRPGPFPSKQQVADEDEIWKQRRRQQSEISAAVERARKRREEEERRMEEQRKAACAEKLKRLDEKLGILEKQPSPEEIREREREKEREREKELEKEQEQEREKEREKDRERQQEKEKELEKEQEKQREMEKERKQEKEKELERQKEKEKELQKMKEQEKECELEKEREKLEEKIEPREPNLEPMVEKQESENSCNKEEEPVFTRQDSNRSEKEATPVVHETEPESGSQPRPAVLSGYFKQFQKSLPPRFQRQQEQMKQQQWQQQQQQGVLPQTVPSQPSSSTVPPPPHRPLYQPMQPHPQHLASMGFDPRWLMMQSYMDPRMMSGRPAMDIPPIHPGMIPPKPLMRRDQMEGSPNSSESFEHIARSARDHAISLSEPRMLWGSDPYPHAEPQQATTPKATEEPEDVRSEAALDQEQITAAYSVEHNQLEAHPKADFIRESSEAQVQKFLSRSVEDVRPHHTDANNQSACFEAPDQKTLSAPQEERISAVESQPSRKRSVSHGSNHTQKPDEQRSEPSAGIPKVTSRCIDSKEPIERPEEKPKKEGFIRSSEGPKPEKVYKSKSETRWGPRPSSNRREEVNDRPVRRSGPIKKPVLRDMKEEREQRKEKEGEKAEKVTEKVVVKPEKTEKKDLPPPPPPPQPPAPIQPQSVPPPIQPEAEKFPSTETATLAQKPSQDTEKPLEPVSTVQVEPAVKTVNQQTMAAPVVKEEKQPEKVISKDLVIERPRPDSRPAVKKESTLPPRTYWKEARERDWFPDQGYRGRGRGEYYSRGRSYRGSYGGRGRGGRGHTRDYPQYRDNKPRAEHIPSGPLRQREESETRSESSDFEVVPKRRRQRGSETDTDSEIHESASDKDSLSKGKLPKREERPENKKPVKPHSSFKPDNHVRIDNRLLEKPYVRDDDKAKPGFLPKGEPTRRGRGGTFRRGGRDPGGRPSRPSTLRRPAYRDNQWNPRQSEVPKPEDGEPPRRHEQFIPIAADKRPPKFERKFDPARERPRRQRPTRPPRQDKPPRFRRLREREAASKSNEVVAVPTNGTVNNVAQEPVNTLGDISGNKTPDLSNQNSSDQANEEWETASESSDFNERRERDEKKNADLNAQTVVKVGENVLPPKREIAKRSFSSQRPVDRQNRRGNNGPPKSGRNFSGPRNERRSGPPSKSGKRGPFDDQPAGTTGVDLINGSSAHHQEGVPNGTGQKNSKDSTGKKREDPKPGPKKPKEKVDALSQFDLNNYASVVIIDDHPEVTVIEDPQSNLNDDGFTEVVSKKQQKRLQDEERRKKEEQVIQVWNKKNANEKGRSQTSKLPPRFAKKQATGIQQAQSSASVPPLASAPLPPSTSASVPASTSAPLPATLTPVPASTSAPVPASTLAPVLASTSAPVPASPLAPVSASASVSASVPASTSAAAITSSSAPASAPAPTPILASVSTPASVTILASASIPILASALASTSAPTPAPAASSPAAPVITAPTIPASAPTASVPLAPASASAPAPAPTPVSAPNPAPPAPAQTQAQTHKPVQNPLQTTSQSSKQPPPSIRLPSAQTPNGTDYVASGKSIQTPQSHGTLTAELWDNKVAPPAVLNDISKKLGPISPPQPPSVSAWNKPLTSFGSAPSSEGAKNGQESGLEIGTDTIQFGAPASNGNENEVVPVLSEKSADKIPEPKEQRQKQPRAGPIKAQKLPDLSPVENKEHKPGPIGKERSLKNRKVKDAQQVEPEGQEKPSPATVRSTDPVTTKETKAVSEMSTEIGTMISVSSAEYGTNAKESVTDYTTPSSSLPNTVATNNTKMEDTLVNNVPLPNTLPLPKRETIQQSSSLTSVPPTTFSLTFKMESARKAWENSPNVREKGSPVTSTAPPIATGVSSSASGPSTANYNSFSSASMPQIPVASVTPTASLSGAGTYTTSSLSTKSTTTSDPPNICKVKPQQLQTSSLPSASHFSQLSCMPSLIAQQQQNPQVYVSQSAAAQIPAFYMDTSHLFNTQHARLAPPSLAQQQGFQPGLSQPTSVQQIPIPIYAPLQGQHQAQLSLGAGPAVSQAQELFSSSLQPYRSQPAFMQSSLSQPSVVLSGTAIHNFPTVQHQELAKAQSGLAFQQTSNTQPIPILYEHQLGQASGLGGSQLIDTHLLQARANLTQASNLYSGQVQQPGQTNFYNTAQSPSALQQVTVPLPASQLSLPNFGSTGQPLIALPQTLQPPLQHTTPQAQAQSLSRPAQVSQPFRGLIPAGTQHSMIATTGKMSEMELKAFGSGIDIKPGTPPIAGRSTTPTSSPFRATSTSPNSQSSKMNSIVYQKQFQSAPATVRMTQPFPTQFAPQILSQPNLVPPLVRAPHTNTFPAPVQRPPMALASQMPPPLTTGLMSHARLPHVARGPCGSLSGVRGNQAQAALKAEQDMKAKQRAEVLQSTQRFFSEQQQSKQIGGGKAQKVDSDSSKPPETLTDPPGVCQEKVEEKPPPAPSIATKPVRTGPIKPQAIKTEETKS

[12] = target: Exportin-1 (Homo sapiens) (UniProt O14980)
Also: assay method not described here.

Sequence of Replication factor C subunit 5 (Homo sapiens) (P40937 whole entry): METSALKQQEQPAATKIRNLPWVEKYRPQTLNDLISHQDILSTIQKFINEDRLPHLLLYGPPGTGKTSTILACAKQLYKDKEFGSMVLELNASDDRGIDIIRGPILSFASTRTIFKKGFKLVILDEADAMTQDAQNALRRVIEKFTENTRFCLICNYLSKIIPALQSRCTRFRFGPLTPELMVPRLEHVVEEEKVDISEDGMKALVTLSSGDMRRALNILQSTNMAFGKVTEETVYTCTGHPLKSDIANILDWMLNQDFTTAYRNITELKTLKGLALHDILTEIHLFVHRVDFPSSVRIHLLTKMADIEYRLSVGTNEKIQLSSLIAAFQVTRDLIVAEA

| SMILES | ED50 [1] [nM] | ED50 (Homo sapiens [2]) [nM] | ED50 (Homo sapiens [3]) [nM] | ED50 (Rootletin (Homo sapiens)) [nM] | ED50 [4] [nM] | ED50 (Homo sapiens [5]) [nM] | ED50 [6] [nM] | ED50 [7] [nM] | ED50 [8] [nM] | ED50 (Translin (Homo sapiens)) [nM] | ED50 [9] [nM] | ED50 [10] [nM] | ED50 [11] [nM] | ED50 [12] [nM] |
| --- | --- | --- | --- | --- | --- | --- | --- | --- | --- | --- | --- | --- | --- | --- |
| Cc1ccc(C(=O)Nc2cccc(C(F)(F)F)c2)cc1Nc1nc(-c2cccnc2)nc2c1cnn2C | 3.06 | 723 | 15500 | 115 | 584 | 3870 | 932 | 1960 | 28.7 |  |  |  |  |  |
| Cc1ccc(C(=O)Nc2cccc(C(F)(F)F)c2)cc1Nc1nc(-c2cccnc2)nc2nn(C)cc12 |  |  |  |  |  |  |  |  |  | 1.01 | 72.9 | 686 | 2520 | 4430 |
